Assay results from US20110152314A1, “USE OF TENATOPRAZOLE FOR THE TREATMENT OF GASTROESOPHAGEAL REFLUX DISEASE” (SIDEM PHARMA, priority 2002, published 2011).

System: patients suffering from erosive and/or ulcerative type reflux esophagitis
Experiment: Open-labeled studies in reflux esophagitis: improvement rating of subjective and objective symptoms
Assay type: in vivo, human
Conditions: 10 mg tablet orally once a day
Procedure: Two open-labeled studies have been conducted in order to evaluate the efficacy and safety of tenatoprazole for gastroesophageal reflux disease. 22 patients in the first study and 24 patients in the second study, of more than 20 years of age, suffering from erosive and/or ulcerative type reflux esophagitis (diagnosed by endoscopy), received tablets containing enteric-coated granules with 10 mg of tenatoprazole.
[…] […], or at the withdrawal from the study, the disease stages were evaluated according to the Savary and Miller classification and the treatment was stopped when healing was confirmed. The condition was evaluated as healed when disappearance of erosion was confirmed.

SMILES: COc1ccc2[nH]c([S+]([O-])Cc3ncc(C)c(OC)c3C)nc2n1 (stereo not shown) [tenatoprazole, 5-methoxy-2-[[(4-methoxy-3,5-dimethyl-2-pyridyl)methyl]sulfinyl]imidazo[4,5-b]pyridine]
- Improvement rating of symptoms, patients rated D not changed (1st study, 2 weeks): 1
- Improvement rating of symptoms, patients rated E aggravated (1st study, 2 weeks): 0
- Improvement rating of symptoms, patients rated A markedly improved (1st study, 4 weeks): 23
- Improvement rating of symptoms, patients rated B moderately improved (1st study, 4 weeks): 0
- Improvement rating of symptoms, patients rated C slightly improved (1st study, 4 weeks): 1
- Improvement rating of symptoms, patients rated D not changed (1st study, 4 weeks): 0
- Improvement rating of symptoms, patients rated E aggravated (1st study, 4 weeks): 0
- Improvement rating of symptoms, patients rated A markedly improved (1st study, 6 weeks): 10
- Improvement rating of symptoms, patients rated B moderately improved (1st study, 6 weeks): 0
- Improvement rating of symptoms, patients rated C slightly improved (1st study, 6 weeks): 1
- Improvement rating of symptoms, patients rated D not changed (1st study, 6 weeks): 0
- Improvement rating of symptoms, patients rated E aggravated (1st study, 6 weeks): 0
- Improvement rating of symptoms, patients rated A markedly improved (1st study, 8 weeks): 9
- Improvement rating of symptoms, patients rated B moderately improved (1st study, 8 weeks): 0
- Improvement rating of symptoms, patients rated C slightly improved (1st study, 8 weeks): 1
- Improvement rating of symptoms, patients rated D not changed (1st study, 8 weeks): 0
- Improvement rating of symptoms, patients rated E aggravated (1st study, 8 weeks): 0
- Improvement rating of symptoms, patients rated A markedly improved (1st study, 10 weeks): 2
- Improvement rating of symptoms, patients rated B moderately improved (1st study, 10 weeks): 0
- Improvement rating of symptoms, patients rated C slightly improved (1st study, 10 weeks): 0
- Improvement rating of symptoms, patients rated D not changed (1st study, 10 weeks): 0
- Improvement rating of symptoms, patients rated E aggravated (1st study, 10 weeks): 0
- Improvement rating of symptoms, patients rated A markedly improved (1st study, final): 21
- Improvement rating of symptoms, patients rated B moderately improved (1st study, final): 0
- Improvement rating of symptoms, patients rated C slightly improved (1st study, final): 1
- Improvement rating of symptoms, patients rated D not changed (1st study, final): 0
- Improvement rating of symptoms, patients rated E aggravated (1st study, final): 0
- Improvement rating of symptoms, patients rated A markedly improved (2nd study, 1 week): 19
- Improvement rating of symptoms, patients rated B moderately improved (2nd study, 1 week): 2
- Improvement rating of symptoms, patients rated C slightly improved (2nd study, 1 week): 1
- Improvement rating of symptoms, patients rated D not changed (2nd study, 1 week): 1
- Improvement rating of symptoms, patients rated E aggravated (2nd study, 1 week): 0
- Improvement rating of symptoms, patients rated A markedly improved (2nd study, 2 weeks): 21
- Improvement rating of symptoms, patients rated B moderately improved (2nd study, 2 weeks): 1
- Improvement rating of symptoms, patients rated C slightly improved (2nd study, 2 weeks): 1
- Improvement rating of symptoms, patients rated D not changed (2nd study, 2 weeks): 0
- Improvement rating of symptoms, patients rated E aggravated (2nd study, 2 weeks): 0
- Improvement rating of symptoms, patients rated A markedly improved (2nd study, 4 weeks): 20
- Improvement rating of symptoms, patients rated B moderately improved (2nd study, 4 weeks): 1
- Improvement rating of symptoms, patients rated C slightly improved (2nd study, 4 weeks): 1
- Improvement rating of symptoms, patients rated D not changed (2nd study, 4 weeks): 0
- Improvement rating of symptoms, patients rated E aggravated (2nd study, 4 weeks): 0
- Improvement rating of symptoms, patients rated A markedly improved (2nd study, 6 weeks): 10
- Improvement rating of symptoms, patients rated B moderately improved (2nd study, 6 weeks): 0
- Improvement rating of symptoms, patients rated C slightly improved (2nd study, 6 weeks): 1
- Improvement rating of symptoms, patients rated D not changed (2nd study, 6 weeks): 0
- Improvement rating of symptoms, patients rated E aggravated (2nd study, 6 weeks): 0
- Improvement rating of symptoms, patients rated A markedly improved (2nd study, 8 weeks): 10
- Improvement rating of symptoms, patients rated B moderately improved (2nd study, 8 weeks): 1
- Improvement rating of symptoms, patients rated C slightly improved (2nd study, 8 weeks): 0
- Improvement rating of symptoms, patients rated D not changed (2nd study, 8 weeks): 0
- Improvement rating of symptoms, patients rated E aggravated (2nd study, 8 weeks): 0
- Improvement rating of symptoms, patients rated A markedly improved (2nd study, 10 weeks): 0
- Improvement rating of symptoms, patients rated B moderately improved (2nd study, 10 weeks): 1
- Improvement rating of symptoms, patients rated C slightly improved (2nd study, 10 weeks): 0
- Improvement rating of symptoms, patients rated D not changed (2nd study, 10 weeks): 0
- Improvement rating of symptoms, patients rated E aggravated (2nd study, 10 weeks): 0
- Improvement rating of symptoms, patients rated A markedly improved (2nd study, 12 weeks): 0
- Improvement rating of symptoms, patients rated B moderately improved (2nd study, 12 weeks): 1
- Improvement rating of symptoms, patients rated C slightly improved (2nd study, 12 weeks): 0
- Improvement rating of symptoms, patients rated D not changed (2nd study, 12 weeks): 0
- Improvement rating of symptoms, patients rated E aggravated (2nd study, 12 weeks): 0
- Improvement rating of symptoms, patients rated A markedly improved (2nd study, final): 19
- Improvement rating of symptoms, patients rated B moderately improved (2nd study, final): 2
- Improvement rating of symptoms, patients rated C slightly improved (2nd study, final): 0
- Improvement rating of symptoms, patients rated D not changed (2nd study, final): 0
- Improvement rating of symptoms, patients rated E aggravated (2nd study, final): 0
